Tested on: not listed separately
Assay: In vitro percent inhibition of Cyclin-dependent kinase 2-cyclin A at 10 uM concentration of compound dissolved in 100% DMSO using 5''-[gamma-33P]-triphosphate
Conditions: not given

SMILES | inhibition [%]
COc1cc2nc(-c3cccs3)c(-c3cccs3)nc2cc1OC | -5
O=C(O)c1ccc(-c2nc3cc4ccccc4cc3nc2-c2ccc(C(=O)O)s2)s1 | 3
O=C(O)C1COc2cc3nc(-c4cccs4)c(-c4cccs4)nc3cc2O1 (stereo not given) | 10
O=C(O)Cc1csc(-c2nc3cc4ccccc4cc3nc2-c2cc(CC(=O)O)cs2)c1 | -5

Target: Ribosomal protein S6 kinase (P70S6K) (Homo sapiens) (UniProt Q9UBS0+P23443)
Assay: In vitro percent inhibition of Ribosomal protein S6 kinase at 10 uM concentration of compound dissolved in 100% DMSO using 5''-[gamma-33P]-triphosphate
Format: protein-complex assay
Conditions: not given

SMILES | inhibition [%]
COc1cc2nc(-c3cccs3)c(-c3cccs3)nc2cc1OC | -9
O=C(O)c1ccc(-c2nc3cc4ccccc4cc3nc2-c2ccc(C(=O)O)s2)s1 | 14
O=C(O)C1COc2cc3nc(-c4cccs4)c(-c4cccs4)nc3cc2O1 (stereo not given) | -1
O=C(O)Cc1csc(-c2nc3cc4ccccc4cc3nc2-c2cc(CC(=O)O)cs2)c1 | 10

Target: Glycogen synthase kinase-3 beta (Homo sapiens) (UniProt P49841)
Assay: In vitro percent inhibition of Glycogen synthase kinase 3 beta at 10 uM concentration of compound dissolved in 100% DMSO using 5''-[gamma-33P]-triphosphate
Conditions: not given

Glycogen synthase kinase-3 beta (Homo sapiens), sequence (P49841 whole entry, looked up): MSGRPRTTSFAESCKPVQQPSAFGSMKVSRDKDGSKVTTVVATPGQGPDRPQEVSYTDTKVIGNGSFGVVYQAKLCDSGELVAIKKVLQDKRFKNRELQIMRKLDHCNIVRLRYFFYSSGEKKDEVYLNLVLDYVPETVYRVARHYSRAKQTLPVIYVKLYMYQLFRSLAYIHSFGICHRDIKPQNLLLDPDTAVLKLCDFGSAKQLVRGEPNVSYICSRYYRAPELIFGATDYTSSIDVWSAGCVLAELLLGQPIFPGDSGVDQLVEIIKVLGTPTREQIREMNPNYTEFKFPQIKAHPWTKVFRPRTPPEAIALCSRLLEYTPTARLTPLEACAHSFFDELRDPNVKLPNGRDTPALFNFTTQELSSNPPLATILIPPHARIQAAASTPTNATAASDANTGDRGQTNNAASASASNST

SMILES | inhibition [%]
O=C(O)c1ccc(-c2nc3cc4ccccc4cc3nc2-c2ccc(C(=O)O)s2)s1 | 51
O=C(O)C1COc2cc3nc(-c4cccs4)c(-c4cccs4)nc3cc2O1 (stereo not given) | 33
O=C(O)Cc1csc(-c2nc3cc4ccccc4cc3nc2-c2cc(CC(=O)O)cs2)c1 | 22

Target: RAF proto-oncogene serine/threonine-protein kinase (Homo sapiens) (UniProt P04049)
Assay: In vitro percent inhibition of RAF proto-oncogene serine/threonine-protein kinase at 10 uM concentration of compound dissolved in 100% DMSO using 5''-[gamma-33P]-triphosphate
Conditions: not given

RAF proto-oncogene serine/threonine-protein kinase (Homo sapiens), sequence (P04049 whole entry): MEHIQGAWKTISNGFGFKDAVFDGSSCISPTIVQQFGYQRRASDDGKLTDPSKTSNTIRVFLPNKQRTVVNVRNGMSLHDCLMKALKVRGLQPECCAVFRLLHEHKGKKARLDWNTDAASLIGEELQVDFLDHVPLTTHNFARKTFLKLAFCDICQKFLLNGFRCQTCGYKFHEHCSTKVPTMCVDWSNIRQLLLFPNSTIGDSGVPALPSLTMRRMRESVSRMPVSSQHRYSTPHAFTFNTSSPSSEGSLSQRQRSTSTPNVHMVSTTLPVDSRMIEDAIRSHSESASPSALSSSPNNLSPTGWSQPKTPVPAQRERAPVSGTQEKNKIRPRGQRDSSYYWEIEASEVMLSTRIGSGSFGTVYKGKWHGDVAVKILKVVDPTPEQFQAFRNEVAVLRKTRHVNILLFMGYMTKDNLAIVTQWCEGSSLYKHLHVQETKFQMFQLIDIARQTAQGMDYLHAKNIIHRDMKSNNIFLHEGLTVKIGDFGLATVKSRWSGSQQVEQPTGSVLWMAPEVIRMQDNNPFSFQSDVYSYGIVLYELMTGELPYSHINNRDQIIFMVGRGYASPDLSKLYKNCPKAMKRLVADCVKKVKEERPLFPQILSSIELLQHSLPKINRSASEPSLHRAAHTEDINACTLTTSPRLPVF

SMILES | inhibition [%]
COc1cc2nc(-c3cccs3)c(-c3cccs3)nc2cc1OC | 11
O=C(O)c1ccc(-c2nc3cc4ccccc4cc3nc2-c2ccc(C(=O)O)s2)s1 | 16
O=C(O)C1COc2cc3nc(-c4cccs4)c(-c4cccs4)nc3cc2O1 (stereo not given) | 12
O=C(O)Cc1csc(-c2nc3cc4ccccc4cc3nc2-c2cc(CC(=O)O)cs2)c1 | 40

Target: Platelet-derived growth factor receptor beta (Homo sapiens) (UniProt P09619)
Assay: In vitro percent inhibition of Platelet-derived growth factor receptor, beta polypeptide at 10 uM concentration of compound dissolved in 100% DMSO using 5''-[gamma-33P]-triphosphate
Conditions: not given

SMILES | inhibition [%]
COc1cc2nc(-c3cccs3)c(-c3cccs3)nc2cc1OC | 7
O=C(O)c1ccc(-c2nc3cc4ccccc4cc3nc2-c2ccc(C(=O)O)s2)s1 | 23
O=C(O)C1COc2cc3nc(-c4cccs4)c(-c4cccs4)nc3cc2O1 (stereo not given) | 5
O=C(O)Cc1csc(-c2nc3cc4ccccc4cc3nc2-c2cc(CC(=O)O)cs2)c1 | 22

Target: Mast/stem cell growth factor receptor Kit (Homo sapiens) (UniProt P10721)
Assay: In vitro percent inhibition of v-kit Hardy-Zuckerman 4 feline sarcoma viral oncogene homolog at 10 uM concentration of compound dissolved in 100% DMSO using 5''-[gamma-33P]-triphosphate
Conditions: not given

SMILES | inhibition [%]
COc1cc2nc(-c3cccs3)c(-c3cccs3)nc2cc1OC | -6
O=C(O)c1ccc(-c2nc3cc4ccccc4cc3nc2-c2ccc(C(=O)O)s2)s1 | 12
O=C(O)C1COc2cc3nc(-c4cccs4)c(-c4cccs4)nc3cc2O1 (stereo not given) | 4
O=C(O)Cc1csc(-c2nc3cc4ccccc4cc3nc2-c2cc(CC(=O)O)cs2)c1 | 17

Target: Insulin receptor (Homo sapiens) (UniProt P06213)
Assay: In vitro percent inhibition of Insulin receptor at 10 uM concentration of compound dissolved in 100% DMSO using 5''-[gamma-33P]-triphosphate
Conditions: not given

SMILES | inhibition [%]
COc1cc2nc(-c3cccs3)c(-c3cccs3)nc2cc1OC | -7

Target: Hepatocyte growth factor receptor (Homo sapiens) (UniProt P08581)
Assay: In vitro percent inhibition of Met proto-oncogene tyrosine kinase at 10 uM concentration of compound dissolved in 100% DMSO using 5''-[gamma-33P]-triphosphate
Conditions: not given

SMILES | inhibition [%]
COc1cc2nc(-c3cccs3)c(-c3cccs3)nc2cc1OC | -3
O=C(O)c1ccc(-c2nc3cc4ccccc4cc3nc2-c2ccc(C(=O)O)s2)s1 | -4
O=C(O)C1COc2cc3nc(-c4cccs4)c(-c4cccs4)nc3cc2O1 (stereo not given) | -2
O=C(O)Cc1csc(-c2nc3cc4ccccc4cc3nc2-c2cc(CC(=O)O)cs2)c1 | 21

Target: Mitogen-activated protein kinase 3 (Homo sapiens) (UniProt P27361)
Assay: In vitro percent inhibition of Mitogen-activated protein kinase 3 at 10 uM concentration of compound dissolved in 100% DMSO using 5''-[gamma-33P]-triphosphate
Conditions: not given

Mitogen-activated protein kinase 3 (Homo sapiens), sequence (P27361 whole entry): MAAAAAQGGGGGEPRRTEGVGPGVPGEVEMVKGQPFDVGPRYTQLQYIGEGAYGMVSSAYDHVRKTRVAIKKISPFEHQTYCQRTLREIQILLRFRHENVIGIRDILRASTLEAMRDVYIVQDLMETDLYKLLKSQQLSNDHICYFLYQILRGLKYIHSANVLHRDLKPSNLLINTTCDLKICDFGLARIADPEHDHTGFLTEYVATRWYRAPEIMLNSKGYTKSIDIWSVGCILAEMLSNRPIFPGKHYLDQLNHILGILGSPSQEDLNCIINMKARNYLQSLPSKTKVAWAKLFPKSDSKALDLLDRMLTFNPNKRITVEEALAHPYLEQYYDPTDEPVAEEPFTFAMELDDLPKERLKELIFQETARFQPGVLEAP

SMILES | inhibition [%]
COc1cc2nc(-c3cccs3)c(-c3cccs3)nc2cc1OC | 10
O=C(O)c1ccc(-c2nc3cc4ccccc4cc3nc2-c2ccc(C(=O)O)s2)s1 | 49
O=C(O)C1COc2cc3nc(-c4cccs4)c(-c4cccs4)nc3cc2O1 (stereo not given) | 39
O=C(O)Cc1csc(-c2nc3cc4ccccc4cc3nc2-c2cc(CC(=O)O)cs2)c1 | 54

Target: RAC-alpha serine/threonine-protein kinase (Homo sapiens) (UniProt P31749)
Assay: In vitro percent inhibition of Protein kinase B, alpha at 10 uM concentration of compound dissolved in 100% DMSO using 5''-[gamma-33P]-triphosphate
Conditions: not given

RAC-alpha serine/threonine-protein kinase (Homo sapiens), sequence (P31749 whole entry): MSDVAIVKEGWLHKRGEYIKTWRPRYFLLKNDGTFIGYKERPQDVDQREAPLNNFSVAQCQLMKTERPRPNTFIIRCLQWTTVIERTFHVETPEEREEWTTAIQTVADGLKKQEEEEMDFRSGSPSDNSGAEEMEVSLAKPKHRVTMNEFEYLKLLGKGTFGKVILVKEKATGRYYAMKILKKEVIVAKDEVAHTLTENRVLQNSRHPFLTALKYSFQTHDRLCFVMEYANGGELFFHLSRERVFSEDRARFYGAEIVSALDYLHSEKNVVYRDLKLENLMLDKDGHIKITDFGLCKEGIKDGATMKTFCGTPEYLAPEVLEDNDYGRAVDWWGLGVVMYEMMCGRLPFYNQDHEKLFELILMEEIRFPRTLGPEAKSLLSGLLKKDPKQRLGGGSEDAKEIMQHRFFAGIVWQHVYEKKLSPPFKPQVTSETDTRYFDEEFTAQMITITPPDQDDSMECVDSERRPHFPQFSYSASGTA

SMILES | inhibition [%]
COc1cc2nc(-c3cccs3)c(-c3cccs3)nc2cc1OC | -6
O=C(O)c1ccc(-c2nc3cc4ccccc4cc3nc2-c2ccc(C(=O)O)s2)s1 | 12
O=C(O)C1COc2cc3nc(-c4cccs4)c(-c4cccs4)nc3cc2O1 (stereo not given) | 4
O=C(O)Cc1csc(-c2nc3cc4ccccc4cc3nc2-c2cc(CC(=O)O)cs2)c1 | 17

Target: Tyrosine-protein kinase Lck (Homo sapiens) (UniProt P06239)
Assay: In vitro percent inhibition of p56 Lck tyrosine kinase at 10 uM concentration of compound dissolved in 100% DMSO using 5''-[gamma-33P]-triphosphate
Conditions: not given

SMILES | inhibition [%]
COc1cc2nc(-c3cccs3)c(-c3cccs3)nc2cc1OC | 9
O=C(O)C1COc2cc3nc(-c4cccs4)c(-c4cccs4)nc3cc2O1 (stereo not given) | -2
O=C(O)Cc1csc(-c2nc3cc4ccccc4cc3nc2-c2cc(CC(=O)O)cs2)c1 | 8

Target: Rho-associated protein kinase 2 (Homo sapiens) (UniProt O75116)
Assay: In vitro percent inhibition of Protein kinase ROCK2 at 10 uM concentration of compound dissolved in 100% DMSO using 5''-[gamma-33P]-triphosphate
Conditions: not given

Rho-associated protein kinase 2 (Homo sapiens), sequence (O75116 whole entry, looked up): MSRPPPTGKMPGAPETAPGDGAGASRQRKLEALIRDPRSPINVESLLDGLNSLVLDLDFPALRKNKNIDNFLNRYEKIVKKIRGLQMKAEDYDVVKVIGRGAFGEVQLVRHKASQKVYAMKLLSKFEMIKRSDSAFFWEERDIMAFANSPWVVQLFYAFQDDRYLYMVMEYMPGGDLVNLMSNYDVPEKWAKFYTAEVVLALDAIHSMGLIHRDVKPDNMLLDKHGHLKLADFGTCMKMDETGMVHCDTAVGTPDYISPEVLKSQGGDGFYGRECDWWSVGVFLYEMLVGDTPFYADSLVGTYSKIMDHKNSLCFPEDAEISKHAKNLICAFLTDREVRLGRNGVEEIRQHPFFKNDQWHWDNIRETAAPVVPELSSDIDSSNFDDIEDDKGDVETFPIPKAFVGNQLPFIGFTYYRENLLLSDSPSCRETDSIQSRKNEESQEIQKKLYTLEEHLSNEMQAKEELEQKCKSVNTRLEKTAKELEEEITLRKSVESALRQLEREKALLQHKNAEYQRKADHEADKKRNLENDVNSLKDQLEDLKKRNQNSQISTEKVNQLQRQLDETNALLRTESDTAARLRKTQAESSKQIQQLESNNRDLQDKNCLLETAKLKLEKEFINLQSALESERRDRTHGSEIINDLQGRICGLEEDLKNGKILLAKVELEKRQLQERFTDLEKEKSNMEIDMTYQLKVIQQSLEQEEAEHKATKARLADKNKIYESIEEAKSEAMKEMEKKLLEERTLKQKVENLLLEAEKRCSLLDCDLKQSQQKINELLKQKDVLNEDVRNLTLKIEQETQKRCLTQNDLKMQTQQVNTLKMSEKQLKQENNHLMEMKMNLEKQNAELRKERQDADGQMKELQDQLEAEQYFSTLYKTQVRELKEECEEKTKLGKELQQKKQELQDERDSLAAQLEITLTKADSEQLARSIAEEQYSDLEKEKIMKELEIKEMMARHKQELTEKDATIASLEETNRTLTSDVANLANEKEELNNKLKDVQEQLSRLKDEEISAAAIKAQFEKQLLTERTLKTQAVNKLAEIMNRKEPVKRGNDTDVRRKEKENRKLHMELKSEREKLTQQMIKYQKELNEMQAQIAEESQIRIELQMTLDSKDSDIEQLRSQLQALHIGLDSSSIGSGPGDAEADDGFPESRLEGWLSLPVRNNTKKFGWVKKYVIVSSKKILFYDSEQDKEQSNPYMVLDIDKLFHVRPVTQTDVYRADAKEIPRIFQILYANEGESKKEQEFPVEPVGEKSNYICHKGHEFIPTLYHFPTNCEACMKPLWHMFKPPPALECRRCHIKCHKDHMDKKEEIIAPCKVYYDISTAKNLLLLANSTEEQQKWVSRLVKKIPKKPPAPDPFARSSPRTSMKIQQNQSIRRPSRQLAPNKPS

SMILES | inhibition [%]
COc1cc2nc(-c3cccs3)c(-c3cccs3)nc2cc1OC | 2
O=C(O)c1ccc(-c2nc3cc4ccccc4cc3nc2-c2ccc(C(=O)O)s2)s1 | 19
O=C(O)C1COc2cc3nc(-c4cccs4)c(-c4cccs4)nc3cc2O1 (stereo not given) | -1
O=C(O)Cc1csc(-c2nc3cc4ccccc4cc3nc2-c2cc(CC(=O)O)cs2)c1 | 18

Target: Casein kinase I isoform alpha (Homo sapiens) (UniProt P48729)
Assay: In vitro percent inhibition of Casein kinase 1 alpha at 10 uM concentration of compound dissolved in 100% DMSO using 5''-[gamma-33P]-triphosphate
Conditions: not given

SMILES | inhibition [%]
COc1cc2nc(-c3cccs3)c(-c3cccs3)nc2cc1OC | -1
O=C(O)c1ccc(-c2nc3cc4ccccc4cc3nc2-c2ccc(C(=O)O)s2)s1 | 7
O=C(O)C1COc2cc3nc(-c4cccs4)c(-c4cccs4)nc3cc2O1 (stereo not given) | 15
O=C(O)Cc1csc(-c2nc3cc4ccccc4cc3nc2-c2cc(CC(=O)O)cs2)c1 | 18

Target: T1, Inhibitor of nuclear factor kappa-B kinase subunit beta (Homo sapiens) (UniProt O14920)
T1 sequence (whole entry): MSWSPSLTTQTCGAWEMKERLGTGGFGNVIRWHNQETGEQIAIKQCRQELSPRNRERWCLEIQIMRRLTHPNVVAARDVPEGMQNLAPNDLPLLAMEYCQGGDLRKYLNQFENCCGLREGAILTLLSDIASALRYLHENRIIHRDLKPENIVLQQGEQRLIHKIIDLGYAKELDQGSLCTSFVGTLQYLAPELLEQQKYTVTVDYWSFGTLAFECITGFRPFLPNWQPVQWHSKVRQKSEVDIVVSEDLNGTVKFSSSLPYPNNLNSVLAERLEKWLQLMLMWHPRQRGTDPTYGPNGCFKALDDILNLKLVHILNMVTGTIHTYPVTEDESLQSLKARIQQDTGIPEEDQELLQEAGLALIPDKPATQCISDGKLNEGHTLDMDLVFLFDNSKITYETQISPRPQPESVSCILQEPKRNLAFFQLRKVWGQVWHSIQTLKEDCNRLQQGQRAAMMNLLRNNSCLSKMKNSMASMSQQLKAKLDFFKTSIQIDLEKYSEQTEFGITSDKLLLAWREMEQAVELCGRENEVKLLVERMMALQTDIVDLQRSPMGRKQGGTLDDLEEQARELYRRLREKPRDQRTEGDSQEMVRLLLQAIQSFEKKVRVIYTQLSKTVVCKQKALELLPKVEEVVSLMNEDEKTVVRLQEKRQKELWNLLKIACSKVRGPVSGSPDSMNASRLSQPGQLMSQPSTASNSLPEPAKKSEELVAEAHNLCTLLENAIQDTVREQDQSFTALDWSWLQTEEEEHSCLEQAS
Assay: In vitro percent inhibition of I-kappa-B-kinase beta at 10 uM concentration of compound dissolved in 100% DMSO using 5''-[gamma-33P]-triphosphate
Conditions: not given

SMILES | inhibition [%]
COc1cc2nc(-c3cccs3)c(-c3cccs3)nc2cc1OC | 10
O=C(O)c1ccc(-c2nc3cc4ccccc4cc3nc2-c2ccc(C(=O)O)s2)s1 | 29
O=C(O)C1COc2cc3nc(-c4cccs4)c(-c4cccs4)nc3cc2O1 (stereo not given) | 14
O=C(O)Cc1csc(-c2nc3cc4ccccc4cc3nc2-c2cc(CC(=O)O)cs2)c1 | 37

Tested on: not listed separately
Assay: In vitro percent inhibition of Ribosomal S6 kinase 1 at 10 uM concentration of compound dissolved in 100% DMSO using 5''-[gamma-33P]-triphosphate
Conditions: not given

SMILES | inhibition [%]
COc1cc2nc(-c3cccs3)c(-c3cccs3)nc2cc1OC | 15
O=C(O)c1ccc(-c2nc3cc4ccccc4cc3nc2-c2ccc(C(=O)O)s2)s1 | 31
O=C(O)C1COc2cc3nc(-c4cccs4)c(-c4cccs4)nc3cc2O1 (stereo not given) | 14
O=C(O)Cc1csc(-c2nc3cc4ccccc4cc3nc2-c2cc(CC(=O)O)cs2)c1 | 27

Target: Proto-oncogene tyrosine-protein kinase Src (Homo sapiens) (UniProt P12931)
Assay: In vitro percent inhibition of c-Src tyrosine kinase at 10 uM concentration of compound dissolved in 100% DMSO using 5''-[gamma-33P]-triphosphate
Conditions: not given

Proto-oncogene tyrosine-protein kinase Src (Homo sapiens), sequence (P12931 2-536 limits assumed): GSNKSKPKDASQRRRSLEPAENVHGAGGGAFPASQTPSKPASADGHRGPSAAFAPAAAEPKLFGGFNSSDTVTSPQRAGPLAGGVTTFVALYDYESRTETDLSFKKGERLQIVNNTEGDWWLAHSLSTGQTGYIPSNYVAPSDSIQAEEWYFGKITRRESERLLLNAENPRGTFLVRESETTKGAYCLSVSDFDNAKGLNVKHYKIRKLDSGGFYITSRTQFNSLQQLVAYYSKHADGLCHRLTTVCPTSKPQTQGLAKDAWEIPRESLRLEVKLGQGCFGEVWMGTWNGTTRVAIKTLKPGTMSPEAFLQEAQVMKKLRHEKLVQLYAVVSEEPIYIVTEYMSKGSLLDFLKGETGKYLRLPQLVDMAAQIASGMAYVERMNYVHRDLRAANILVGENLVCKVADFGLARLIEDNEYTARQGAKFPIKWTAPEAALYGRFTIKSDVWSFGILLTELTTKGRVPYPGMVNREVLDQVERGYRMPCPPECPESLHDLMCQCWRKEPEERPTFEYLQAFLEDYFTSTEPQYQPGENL

SMILES | inhibition [%]
COc1cc2nc(-c3cccs3)c(-c3cccs3)nc2cc1OC | 10
O=C(O)c1ccc(-c2nc3cc4ccccc4cc3nc2-c2ccc(C(=O)O)s2)s1 | 20
O=C(O)C1COc2cc3nc(-c4cccs4)c(-c4cccs4)nc3cc2O1 (stereo not given) | 19
O=C(O)Cc1csc(-c2nc3cc4ccccc4cc3nc2-c2cc(CC(=O)O)cs2)c1 | 29

Target: T2, Tyrosine-protein kinase transforming protein Abl (Abelson murine leukemia virus) (UniProt P00521)
T2 sequence (whole entry): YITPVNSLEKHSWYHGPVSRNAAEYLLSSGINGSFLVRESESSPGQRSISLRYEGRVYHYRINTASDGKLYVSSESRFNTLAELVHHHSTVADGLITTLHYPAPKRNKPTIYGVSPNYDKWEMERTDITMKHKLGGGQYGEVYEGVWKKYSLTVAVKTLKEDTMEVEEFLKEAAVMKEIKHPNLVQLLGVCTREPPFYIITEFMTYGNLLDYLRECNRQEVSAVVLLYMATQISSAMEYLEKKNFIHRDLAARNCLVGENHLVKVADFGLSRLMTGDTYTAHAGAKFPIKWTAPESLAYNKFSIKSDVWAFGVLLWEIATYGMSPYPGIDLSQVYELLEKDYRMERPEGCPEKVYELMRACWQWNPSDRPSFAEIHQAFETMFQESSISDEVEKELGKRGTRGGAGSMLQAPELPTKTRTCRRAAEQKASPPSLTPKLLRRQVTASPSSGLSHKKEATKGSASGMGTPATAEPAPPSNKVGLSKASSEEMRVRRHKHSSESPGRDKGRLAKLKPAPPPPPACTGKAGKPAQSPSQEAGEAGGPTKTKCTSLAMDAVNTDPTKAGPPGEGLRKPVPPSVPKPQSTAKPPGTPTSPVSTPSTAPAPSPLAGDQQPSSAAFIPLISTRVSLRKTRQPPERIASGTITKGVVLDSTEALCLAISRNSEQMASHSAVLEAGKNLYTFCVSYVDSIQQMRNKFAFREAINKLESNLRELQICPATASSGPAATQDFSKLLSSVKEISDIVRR
Assay: In vitro percent inhibition of v-Abl tyrosine kinase at 10 uM concentration of compound dissolved in 100% DMSO using 5''-[gamma-33P]-triphosphate
Conditions: not given

SMILES | inhibition [%]
COc1cc2nc(-c3cccs3)c(-c3cccs3)nc2cc1OC | -2
O=C(O)C1COc2cc3nc(-c4cccs4)c(-c4cccs4)nc3cc2O1 (stereo not given) | -6
O=C(O)Cc1csc(-c2nc3cc4ccccc4cc3nc2-c2cc(CC(=O)O)cs2)c1 | -7

Tested on: not listed separately
Assay: Partition coefficient (logP)
Format: physicochemical
Conditions: octanol/water

SMILES | logP
COc1cc2nc(-c3cccs3)c(-c3cccs3)nc2cc1OC | 4
O=C(O)c1ccc(-c2nc3cc4ccccc4cc3nc2-c2ccc(C(=O)O)s2)s1 | 5.03
O=C(O)C1COc2cc3nc(-c4cccs4)c(-c4cccs4)nc3cc2O1 (stereo not given) | 4.7
O=C(O)Cc1csc(-c2nc3cc4ccccc4cc3nc2-c2cc(CC(=O)O)cs2)c1 | 4.11

Target: Epidermal growth factor receptor (Homo sapiens) (UniProt P00533)
Conditions: 10 uM

Epidermal growth factor receptor (Homo sapiens), sequence (P00533 whole entry): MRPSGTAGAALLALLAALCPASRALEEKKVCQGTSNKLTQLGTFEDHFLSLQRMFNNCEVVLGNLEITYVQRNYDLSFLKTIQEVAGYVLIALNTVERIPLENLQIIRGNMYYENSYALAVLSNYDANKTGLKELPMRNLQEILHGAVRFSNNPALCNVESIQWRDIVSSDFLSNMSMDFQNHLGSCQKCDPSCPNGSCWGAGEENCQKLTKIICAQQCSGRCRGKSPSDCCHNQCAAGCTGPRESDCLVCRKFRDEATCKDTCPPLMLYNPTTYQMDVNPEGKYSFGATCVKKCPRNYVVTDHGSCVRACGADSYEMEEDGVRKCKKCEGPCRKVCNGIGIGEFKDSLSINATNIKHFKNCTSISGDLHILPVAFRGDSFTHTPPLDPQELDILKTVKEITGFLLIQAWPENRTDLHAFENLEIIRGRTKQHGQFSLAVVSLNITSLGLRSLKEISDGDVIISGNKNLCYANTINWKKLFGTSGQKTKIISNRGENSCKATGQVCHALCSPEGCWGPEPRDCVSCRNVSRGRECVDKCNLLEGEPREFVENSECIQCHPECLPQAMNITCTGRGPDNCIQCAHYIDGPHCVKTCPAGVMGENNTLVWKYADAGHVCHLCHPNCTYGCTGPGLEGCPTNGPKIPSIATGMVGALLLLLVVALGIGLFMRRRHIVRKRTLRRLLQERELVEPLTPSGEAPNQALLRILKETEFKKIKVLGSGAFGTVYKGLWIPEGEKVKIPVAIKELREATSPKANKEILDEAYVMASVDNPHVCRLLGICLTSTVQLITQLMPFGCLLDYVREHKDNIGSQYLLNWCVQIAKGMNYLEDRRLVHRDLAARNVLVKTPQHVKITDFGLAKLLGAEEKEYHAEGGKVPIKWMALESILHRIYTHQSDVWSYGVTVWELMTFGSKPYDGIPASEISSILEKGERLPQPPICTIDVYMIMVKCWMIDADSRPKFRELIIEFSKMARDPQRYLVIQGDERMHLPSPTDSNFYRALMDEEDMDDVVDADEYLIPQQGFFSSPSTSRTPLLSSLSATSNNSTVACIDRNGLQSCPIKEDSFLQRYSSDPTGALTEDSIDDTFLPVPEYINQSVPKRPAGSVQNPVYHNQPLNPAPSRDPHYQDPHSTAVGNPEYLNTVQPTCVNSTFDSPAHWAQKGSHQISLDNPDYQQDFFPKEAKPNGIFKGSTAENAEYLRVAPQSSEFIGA

SMILES | inhibition [%]
COc1cc2nc(-c3cccs3)c(-c3cccs3)nc2cc1OC | 10
O=C(O)c1ccc(-c2nc3cc4ccccc4cc3nc2-c2ccc(C(=O)O)s2)s1 | 49
O=C(O)C1COc2cc3nc(-c4cccs4)c(-c4cccs4)nc3cc2O1 (stereo not given) | 39
O=C(O)Cc1csc(-c2nc3cc4ccccc4cc3nc2-c2cc(CC(=O)O)cs2)c1 | 54
